From patent US20100061984A1, “COMPOSITIONS AND METHODS FOR MODULATION OF SUPPRESSOR T CELL ACTIVATION” (The Trustees of the University of Pennsylvania, priority 2006, published 2010)
Marks after values point to notes of the source that are not given here.

Legend:
autoimmune models = assay: several autoimmune models (NOD, EAE, CIA); type: in vivo; conditions: MOG-induced EAE and CIA mouse models
Excerpt: Studies of the rational inactivation of HDACs have been initiated with the intent of modifying FOXP3 acetylation. […] This treatment leads to increased FoxP3^+ suppressor cell levels and function. The models studied include the Nonobese Diabetic Mice (NOD) model, the myelin oligodendrocyte glycoprotein-induced experimental autoimmune encephalomyelitis (EAE) model, and the collagen-induced arthritis (CIA) mouse model.

[1] = tested on: collagen induced arthritis (CIA); assay: collagen induced arthritis (CIA) disease model of rheumatoid arthritis; type: in vivo, mice
Description: (§1) HDAC inhibitor treatment in collagen induced arthritis: HDAC inhibitor VPA was tested in the collagen induced arthritis (CIA) disease model of rheumatoid arthritis. CD4+ T cells as well as B cells are responsible for disease manifestation within the joints and CD25+ Treg play a protective role in disease development. After disease induction with type II collagen, mice were administered VPA (400 mg/kg) or PBS ip daily for 5 weeks. They were scored for severity of disease twice per week. […] Splenocytes from collagen induced arthritic mice that were treated with VPA (no disease evident) or PBS (disease evident) were analyzed for expression of CD4, CD25 and FOXP3 by flow cytometry. […] Additionally, the intracellular levels of FOXP3 protein were elevated in the VPA treated mice compared to PBS mice (FIG. 10). […] In proposed studies VPA treated CD25+ cells will be compared to PBS treated CD25+ cells for increased functional regulatory activity in vitro. HDAC inhibitor VPA is able to modify disease progression in the CIA model of rheumatoid arthritis.
(§2) Experiments were done to test the effect of valproic acid (VPA) on autoimmune disease models. Three models were used: a collagen induced arthritis (CIA) model; a non-obese diabetic mouse model; and an experimental autoimmune encephalomyelitis model. Collagen used in the CIA model was collagen from chicken sternal cartilage powder, Type II, from Sigma Cat#C9301. The peptide that was used in EAE experiments was Mouse MOG38-50 peptide ([…]-SEQ ID NO:1), which was synthesized using>F-moc solid phase methods and purified through HPLC by Invitrogen Life Technologies. For each model tested 7-10 mice were used per group. Results obtained with VPA were compared to those using the negative control phosphate buffered saline.

FOXP3+CD25+ cells = assay: flow cytometry of splenocytes from collagen induced arthritic mice for CD4, CD25 and FOXP3; type: in vivo
Description: Splenocytes from collagen induced arthritic mice treated with VPA (no disease evident) or PBS (disease evident) were stained for cell-surface CD25 and intracellular FOXP3. The CD25+FOXP3+cell subpopulation was gated, and FOXP3 level was analyzed.
as §1

[2] = tested on: Experimental Autoimmune Encephalomyelitis; assay: experimental autoimmune encephalomyelitis model (MOG38-50 peptide); type: in vivo; conditions: Table 1, 7-10 mice per group, PBS 100%
Excerpt: as §2

Non-obese diabetic mouse = assay: non-obese diabetic mouse model; type: in vivo; conditions: Table 1, 7-10 mice per group, PBS 50%
Excerpt: as §2

CC(/C=C/C(=O)NO)=C\[C@@H](C)C(=O)c1ccc(N(C)C)cc1 [TSA, Trichostatin A]
FoxP3+ suppressor cell levels and function (autoimmune models): increased | clinical effects in autoimmune models (autoimmune models): significant clinical effects

CCCC(CCC)C(=O)O [VPA, valproic acid]
Incidence of Disease ([1]; Collagen Induced Arthritis, Table 1, 7-10 mice per group, PBS 100%): 29% | mice showing any disease at the end of the 5 week study ([1]; VPA 400 mg/kg ip daily for 5 weeks after induction with type II collagen, PBS group 100%): 25% | disease severity compared to PBS treated ([1]; VPA 400 mg/kg ip daily for 5 weeks, scored twice per week): greatly reduced | intracellular levels of FOXP3 protein compared to PBS mice (FOXP3+CD25+ cells; CD25+FOXP3+ gated splenocytes from CIA mice (FIG. 10)): elevated | increase in the percentage of FOXP3+CD25+ cells, VPA treated versus PBS treated splenocytes (FOXP3+CD25+ cells; splenocytes from CIA mice, flow cytometry): 1.63 fold | FoxP3+ suppressor cell levels and function (autoimmune models): increased | clinical effects in autoimmune models (autoimmune models): significant clinical effects | Incidence of Disease [2]: 57%* | Incidence of Disease (Non-obese diabetic mouse): 20%
